Reference: the NIST ThermoML archive (doi:10.1021/je060271a)

Settings: 303.15 K, Liquid, Vibrating tube method

CCCCCC(=O)OCC(COC(=O)CCCCC)(COC(=O)CCCCC)COC(=O)CCCCC [pentaerythritol tetrahexanoate]
Settings | mass density [kg/m3]
20855 kPa | 1001
20888 kPa | 1001.2
20914 kPa | 1001.2
20942 kPa | 1001.1
20975 kPa | 1001.1
21003 kPa | 1001.2
21057 kPa | 1001.1
21090 kPa | 1001.2
21118 kPa | 1001.3
21151 kPa | 1001.3
21178 kPa | 1001.2
21207 kPa | 1001.4
21241 kPa | 1001.3
21268 kPa | 1001.5
21297 kPa | 1001.3
21331 kPa | 1001.4
21360 kPa | 1001.3
21388 kPa | 1001.4
21422 kPa | 1001.4
21451 kPa | 1001.6
21480 kPa | 1001.5
21514 kPa | 1001.5
21543 kPa | 1001.5
21572 kPa | 1001.4
21607 kPa | 1001.6
21636 kPa | 1001.5
21665 kPa | 1001.5
21701 kPa | 1001.5
21731 kPa | 1001.6
21761 kPa | 1001.6
21796 kPa | 1001.7
21826 kPa | 1001.7
21855 kPa | 1001.7
21885 kPa | 1001.6
21921 kPa | 1001.7
21951 kPa | 1001.7
21981 kPa | 1001.8
22018 kPa | 1001.8
22048 kPa | 1001.8
22079 kPa | 1001.8
22116 kPa | 1001.9
22149 kPa | 1001.8
22180 kPa | 1001.9
22211 kPa | 1002
22242 kPa | 1001.8
22280 kPa | 1001.9
22311 kPa | 1002
22348 kPa | 1002
22379 kPa | 1002
22411 kPa | 1002.1
22442 kPa | 1002
22481 kPa | 1002.1
22513 kPa | 1002
22546 kPa | 1002
22581 kPa | 1002.1
22619 kPa | 1002.2
22651 kPa | 1002.1
22683 kPa | 1002.2
22715 kPa | 1002.2
22754 kPa | 1002.2
22786 kPa | 1002.3
22819 kPa | 1002.3
22858 kPa | 1002.4
22891 kPa | 1002.2
22930 kPa | 1002.3
22964 kPa | 1002.4
22998 kPa | 1002.3
23032 kPa | 1002.4
23072 kPa | 1002.4
23106 kPa | 1002.3
23140 kPa | 1002.4
23181 kPa | 1002.4
23215 kPa | 1002.5
23256 kPa | 1002.4
23291 kPa | 1002.4
23325 kPa | 1002.5
23359 kPa | 1002.5
23398 kPa | 1002.5
24292 kPa | 1003
24323 kPa | 1003
24354 kPa | 1003.1
24390 kPa | 1002.9
24841 kPa | 1003.3
24870 kPa | 1003.4
24905 kPa | 1003.4
24964 kPa | 1003.4
25000 kPa | 1003.5
25312 kPa | 1003.6
25349 kPa | 1003.7
25380 kPa | 1003.6
25410 kPa | 1003.8
25447 kPa | 1003.7
25478 kPa | 1003.7
25518 kPa | 1003.7
25545 kPa | 1003.9
25582 kPa | 1003.9
25614 kPa | 1003.7
25643 kPa | 1003.8
25916 kPa | 1003.9
25947 kPa | 1003.9
25973 kPa | 1004.1
26004 kPa | 1004
26030 kPa | 1004.2
26056 kPa | 1004
26088 kPa | 1004.1
26114 kPa | 1004.1
26140 kPa | 1004.1
26167 kPa | 1004.2
26199 kPa | 1004.1
26225 kPa | 1004.2
26258 kPa | 1004.3
26285 kPa | 1004.1
26312 kPa | 1004.2
26339 kPa | 1004.2
26371 kPa | 1004.2
26399 kPa | 1004.2
26427 kPa | 1004.2
26460 kPa | 1004.3
26488 kPa | 1004.3
26520 kPa | 1004.3
26545 kPa | 1004.4
26569 kPa | 1004.3
26593 kPa | 1004.4
26623 kPa | 1004.3
26648 kPa | 1004.2
26672 kPa | 1004.4
26701 kPa | 1004.4
26726 kPa | 1004.3
26751 kPa | 1004.5
26776 kPa | 1004.4
26806 kPa | 1004.4
26830 kPa | 1004.4
26856 kPa | 1004.5
26885 kPa | 1004.5
26910 kPa | 1004.5
26936 kPa | 1004.7
26966 kPa | 1004.6
26991 kPa | 1004.4
27016 kPa | 1004.6
27041 kPa | 1004.7
27071 kPa | 1004.6
27097 kPa | 1004.6
27127 kPa | 1004.5
27152 kPa | 1004.5
